{
  "source": "ChEMBL document CHEMBL5725324",
  "about": "“Amide compounds for treatment of complement mediated disorders” (2017)",
  "biological_target": "Complement factor D (Homo sapiens, UniProt P00746)",
  "sequence (P00746 whole entry)": "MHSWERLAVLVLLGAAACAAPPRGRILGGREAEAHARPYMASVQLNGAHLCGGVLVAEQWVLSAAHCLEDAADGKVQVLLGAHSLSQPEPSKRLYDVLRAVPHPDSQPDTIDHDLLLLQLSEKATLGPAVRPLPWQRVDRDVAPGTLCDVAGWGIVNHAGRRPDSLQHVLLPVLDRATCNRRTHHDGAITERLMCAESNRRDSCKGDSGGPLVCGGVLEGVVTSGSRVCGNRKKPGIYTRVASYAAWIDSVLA",
  "test": "Human Factor D Assay: Human factor D (purified from human serum, Complement Technology, Inc.) at 80 nM final concentration is incubated with test compound at various concentrations for 5 minutes at room temperature in 50 mM Tris, 1M NaCl, pH 7.5. A synthetic substrate Z-L-Lys-SBzl and DTNB (Ellman's reagent) are added to final concentrations of 100 μM each. The increase in color is recorded at OD405 nm in a microplate in kinetic mode over 30 minutes with 30 second time points in a […]. IC50 values are calculated by non-linear regression from the percentage of inhibition of complement factor D activity as a function of test compound concentration.",
  "data": [
    {"smiles": "CC(=O)c1cn(CC(=O)N2[C@@H]3C[C@@H]3C[C@H]2C(=O)NCc2cccc(Cl)c2F)c2ccc(NC(=O)N3CCCC3)cc12", "values": [
      {"measurement": "IC50", "result": "< 1000", "unit": "nM"}
    ]}
  ]
}
